From the NIST ThermoML archive (doi:10.1016/j.fluid.2012.11.003)
Numbers after ± are expanded uncertainties.

How the values were obtained:
[1] = excess molar enthalpy (molar enthalpy of mixing); xn = mol fraction of the nth substance listed; details: 353.15 K, 101 kPa, Liquid, Flow calorimetry
[2] = activity coefficient (dimensionless); of the first substance listed, at infinite dilution; xn = mol fraction of the nth substance listed; details: 101 kPa, Liquid, dilutor technique, x1 = 0

Compound	activity coefficient ([2]; 313.15 K)	activity coefficient ([2]; 323.15 K)	activity coefficient ([2]; 333.15 K)	activity coefficient ([2]; 343.15 K)	activity coefficient ([2]; 353.15 K)	further results
CCOS(=O)(=O)[O-].CCn1cc[n+](C)c1 [1-ethyl-3-methylimidazolium ethyl sulfate] + CCO						excess molar enthalpy ([1]; x2 = 0.0627): 0.0259 ± 0.000645 kcal/mol; excess molar enthalpy ([1]; x2 = 0.1063): 0.0446 ± 0.00103 kcal/mol; excess molar enthalpy ([1]; x2 = 0.1471): 0.0636 ± 0.00141 kcal/mol; excess molar enthalpy ([1]; x2 = 0.1979): 0.0845 ± 0.00186 kcal/mol; excess molar enthalpy ([1]; x2 = 0.267): 0.109 ± 0.00239 kcal/mol; excess molar enthalpy ([1]; x2 = 0.3288): 0.137 ± 0.00287 kcal/mol; excess molar enthalpy ([1]; x2 = 0.4017): 0.167 ± 0.00359 kcal/mol; excess molar enthalpy ([1]; x2 = 0.4504): 0.181 ± 0.00382 kcal/mol; excess molar enthalpy ([1]; x2 = 0.548): 0.206 ± 0.00454 kcal/mol; excess molar enthalpy ([1]; x2 = 0.6281): 0.219 ± 0.00478 kcal/mol; excess molar enthalpy ([1]; x2 = 0.7203): 0.219 ± 0.00478 kcal/mol; excess molar enthalpy ([1]; x2 = 0.7937): 0.205 ± 0.0043 kcal/mol; excess molar enthalpy ([1]; x2 = 0.8535): 0.174 ± 0.00382 kcal/mol; excess molar enthalpy ([1]; x2 = 0.9032): 0.13 ± 0.00287 kcal/mol; excess molar enthalpy ([1]; x2 = 0.9412): 0.0823 ± 0.00182 kcal/mol; excess molar enthalpy ([1]; x2 = 0.9776): 0.0327 ± 0.000765 kcal/mol
CCn1cc[n+](C)c1.COS(=O)(=O)[O-] [1-ethyl-3-methylimidazolium methylsulfate] + CCO						excess molar enthalpy ([1]; x2 = 0.0977): 0.033 ± 0.000789 kcal/mol; excess molar enthalpy ([1]; x2 = 0.1834): 0.0608 ± 0.00136 kcal/mol; excess molar enthalpy ([1]; x2 = 0.249): 0.0835 ± 0.00184 kcal/mol; excess molar enthalpy ([1]; x2 = 0.3794): 0.134 ± 0.00287 kcal/mol; excess molar enthalpy ([1]; x2 = 0.5247): 0.185 ± 0.00406 kcal/mol; excess molar enthalpy ([1]; x2 = 0.6059): 0.206 ± 0.00454 kcal/mol; excess molar enthalpy ([1]; x2 = 0.701): 0.218 ± 0.00478 kcal/mol; excess molar enthalpy ([1]; x2 = 0.7779): 0.209 ± 0.00454 kcal/mol; excess molar enthalpy ([1]; x2 = 0.8414): 0.183 ± 0.00406 kcal/mol; excess molar enthalpy ([1]; x2 = 0.8947): 0.14 ± 0.00311 kcal/mol; excess molar enthalpy ([1]; x2 = 0.9358): 0.091 ± 0.00198 kcal/mol; excess molar enthalpy ([1]; x2 = 0.9754): 0.0381 ± 0.000884 kcal/mol
CCCCO [butan-1-ol] + CCOS(=O)(=O)[O-].CCn1cc[n+](C)c1	1.93 ± 0.14	1.65 ± 0.12	1.39 ± 0.093	1.37 ± 0.092	1.19 ± 0.077	
CCCCO [butan-1-ol] + CCn1cc[n+](C)c1.COS(=O)(=O)[O-]		2.62 ± 0.23	2.4 ± 0.21	2.05 ± 0.18	1.74 ± 0.12	
CCCCO [butan-1-ol] + CCn1cc[n+](C)c1.O=S(=O)([O-])O		0.758 ± 0.052	0.62 ± 0.047	0.43 ± 0.041		
CCC(C)O (stereo unspecified) [butan-2-ol] + CCOS(=O)(=O)[O-].CCn1cc[n+](C)c1	1.83 ± 0.13	1.69 ± 0.12	1.56 ± 0.11	1.62 ± 0.11	1.39 ± 0.094	activity coefficient ([2]; 303.15 K): 2.06 ± 0.18
CCC(C)O (stereo unspecified) [butan-2-ol] + CCn1cc[n+](C)c1.COS(=O)(=O)[O-]		4.02 ± 0.36	3.11 ± 0.28	2.58 ± 0.23	2.24 ± 0.2	
CCC(C)O (stereo unspecified) [butan-2-ol] + CCn1cc[n+](C)c1.O=S(=O)([O-])O		1.22 ± 0.079	0.76 ± 0.052	0.566 ± 0.045	0.452 ± 0.042	
CCO [ethanol] + CCOS(=O)(=O)[O-].CCn1cc[n+](C)c1	0.783 ± 0.053	0.703 ± 0.05	0.6 ± 0.046	0.554 ± 0.045	0.534 ± 0.044	activity coefficient ([2]; 303.15 K): 0.866 ± 0.056
CCO [ethanol] + CCn1cc[n+](C)c1.COS(=O)(=O)[O-]		0.449 ± 0.042	0.398 ± 0.041	0.349 ± 0.039	0.303 ± 0.039	
CCO [ethanol] + CCn1cc[n+](C)c1.O=S(=O)([O-])O	0.426 ± 0.041	0.269 ± 0.039	0.177 ± 0.039	0.13 ± 0.039	0.116 ± 0.039	
CO [methanol] + CCOS(=O)(=O)[O-].CCn1cc[n+](C)c1	0.419 ± 0.041	0.406 ± 0.041	0.41 ± 0.041	0.389 ± 0.04	0.339 ± 0.039	activity coefficient ([2]; 303.15 K): 0.537 ± 0.044
CO [methanol] + CCn1cc[n+](C)c1.COS(=O)(=O)[O-]		0.257 ± 0.039	0.203 ± 0.039	0.178 ± 0.039	0.105 ± 0.039	
CO [methanol] + CCn1cc[n+](C)c1.O=S(=O)([O-])O		0.087 ± 0.039	0.078	0.058	0.041	
CCCO [propan-1-ol] + CCOS(=O)(=O)[O-].CCn1cc[n+](C)c1	1.2 ± 0.078	1.03 ± 0.064	0.914 ± 0.058	0.855 ± 0.055	0.803 ± 0.054	activity coefficient ([2]; 303.15 K): 1.31 ± 0.087
CCCO [propan-1-ol] + CCn1cc[n+](C)c1.COS(=O)(=O)[O-]		1.05 ± 0.066	0.975 ± 0.06	0.839 ± 0.055	0.705 ± 0.05	
CCCO [propan-1-ol] + CCn1cc[n+](C)c1.O=S(=O)([O-])O		0.431 ± 0.041	0.338 ± 0.039	0.233 ± 0.039	0.196 ± 0.039	
CC(C)O [propan-2-ol] + CCOS(=O)(=O)[O-].CCn1cc[n+](C)c1	1.31 ± 0.087	1.25 ± 0.082	1.04 ± 0.065	1.01 ± 0.062	0.966 ± 0.06	activity coefficient ([2]; 303.15 K): 1.48 ± 0.1
CC(C)O [propan-2-ol] + CCn1cc[n+](C)c1.COS(=O)(=O)[O-]		1.33 ± 0.089	1.17 ± 0.075	1.01 ± 0.062	0.84 ± 0.055	
CC(C)O [propan-2-ol] + CCn1cc[n+](C)c1.O=S(=O)([O-])O		0.577 ± 0.046	0.356 ± 0.04	0.278 ± 0.039	0.223 ± 0.039	
